Results taken from patent US9169254B2, “Spiroimidazolone derivative” (Chugai Seiyaku Kabushiki Kaisha, priority 2009, dated 2015).

Target: T1, human PTH1 receptor (Homo sapiens, UniProt Q03431)
T1 sequence (Q03431 27-593): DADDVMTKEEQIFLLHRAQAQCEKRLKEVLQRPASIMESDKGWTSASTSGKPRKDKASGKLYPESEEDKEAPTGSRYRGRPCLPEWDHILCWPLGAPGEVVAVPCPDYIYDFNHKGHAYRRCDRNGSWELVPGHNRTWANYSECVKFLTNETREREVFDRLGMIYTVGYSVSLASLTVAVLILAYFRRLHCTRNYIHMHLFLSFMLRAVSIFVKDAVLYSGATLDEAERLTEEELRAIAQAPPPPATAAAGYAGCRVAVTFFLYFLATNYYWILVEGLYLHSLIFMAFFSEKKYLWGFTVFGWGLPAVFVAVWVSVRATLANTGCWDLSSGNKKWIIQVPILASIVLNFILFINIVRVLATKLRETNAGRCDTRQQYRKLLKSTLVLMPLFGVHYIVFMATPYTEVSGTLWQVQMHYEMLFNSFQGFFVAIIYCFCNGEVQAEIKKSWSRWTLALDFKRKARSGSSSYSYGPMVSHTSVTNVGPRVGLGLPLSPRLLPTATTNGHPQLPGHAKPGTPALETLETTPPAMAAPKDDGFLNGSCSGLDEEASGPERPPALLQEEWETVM
Experiment: In vitro cAMP signal activity in HKRK-B7 cells (LLC-PK1 cells overexpressing the human PTH1 receptor)
Type: cell-based
Settings: HKRK-B7 cells; compound at 1×10^−3 M; cAMP produced as percentage of that produced by hPTH(1-34) at 100 nM

cAMP production activity (%) | Compound
78 | COCCN(C(N)=O)c1cc(C)c(CCS(=O)(=O)N2CCC3(CC2)N=C(C2CCC(CCC(F)(F)F)CC2)NC3=O)c(C)c1 (stereo not shown) [Compound 827, 1-[3,5-dimethyl-4-(2-{4-oxo-2-[4-(3,3,3-trifluoro-propyl)-cyclohexyl]-1,3,8-triaza-spiro[4.5]dec-1-ene-8-sulfonyl}-ethyl)-phenyl]-1-(2-methoxy-ethyl)-urea]
92 | Cc1cc(N(C(N)=O)C(C)C)cc(C)c1CCS(=O)(=O)N1CCC2(CC1)N=C(C1CCC(C)CC1)NC2=O (stereo not shown) [Compound 828, 1-(3,5-dimethyl-4-{2-[2-(4-methyl-cyclohexyl)-4-oxo-1,3,8-triaza-spiro[4.5]dec-1-ene-8-sulfonyl]-ethyl}-phenyl)-1-isopropyl-urea]
79 | CCc1cc(N(C)C(N)=O)ccc1CCS(=O)(=O)N1CCC2(CC1)N=C(C1CCC(C)CC1)NC2=O (stereo not shown) [Compound 829, 1-(3-ethyl-4-{2-[2-(4-methyl-cyclohexyl)-4-oxo-1,3,8-triaza-spiro[4.5]dec-1-ene-8-sulfonyl]-ethyl}-phenyl)-1-methyl-urea]
73 | Cc1cc(N(C[C@H](O)CO)C(N)=O)cc(C)c1CCS(=O)(=O)N1CCC2(CC1)N=C(C1CCC(C)CC1)NC2=O (stereo partly drawn) [Compound 830, 1-((S)-2,3-dihydroxy-propyl)-1-(3,5-dimethyl-4-{2-[2-(4-methyl-cyclohexyl)-4-oxo-1,3,8-triaza-spiro[4.5]dec-1-ene-8-sulfonyl]-ethyl}-phenyl)-urea]
76 | Cc1cc(N2NCCC2=O)ccc1CCS(=O)(=O)N1CCC2(CC1)N=C([C@H]1CC[C@H](C)CC1)NC2=O [Compound 834, 2-(4-methyl-cyclohexyl)-8-{2-[2-methyl-4-(5-oxo-pyrazolidin-1-yl)-phenyl]-ethanesulfonyl}-1,3,8-triaza-spiro[4.5]dec-1-en-4-one]
50 | O=C1NC(C2CCCCC2)=NC12CCN(S(=O)(=O)CCc1cccc3cc[nH]c13)CC2 [Compound 835, 2-Cyclohexyl-8-[2-(1H-indol-7-yl)-ethanesulfonyl]-1,3,8-triaza-spiro[4.5]dec-1-en-4-one]
56 | O=C1NC(C2CCCCC2)=NC12CCN(S(=O)(=O)CCc1cc3cc[nH]c3cc1C(F)(F)F)CC2 [Compound 836, 2-cyclohexyl-8-[2-(6-trifluoromethyl-1H-indol-5-yl)-ethanesulfonyl]-1,3,8-triaza-spiro[4.5]dec-1-en-4-one]
66 | Cc1cc2[nH]ccc2cc1CCS(=O)(=O)N1CCC2(CC1)N=C(C1CCCCC1)NC2=O [Compound 837, 2-cyclohexyl-8-[2-(6-methyl-1H-indol-5-yl)-ethanesulfonyl]-1,3,8-triaza-spiro[4.5]dec-1-en-4-one]
75 | O=C1NC(C2CCCCC2)=NC12CCN(S(=O)(=O)CCc1ccc3c(ccn3CCOCCO)c1)CC2 [Compound 838, 2-cyclohexyl-8-(2-{1-[2-(2-hydroxy-ethoxy)-ethyl]-1H-indol-5-yl}-ethanesulfonyl)-1,3,8-triaza-spiro[4.5]dec-1-en-4-one]
57 | O=C1NC(C2CCCCC2)=NC12CCN(S(=O)(=O)CCc1cc3nc[nH]c3cc1C(F)(F)F)CC2 [Compound 839, 2-cyclohexyl-8-[2-(6-trifluoromethyl-1H-benzimidazol-5-yl)-ethanesulfonyl]-1,3,8-triaza-spiro[4.5]dec-1-en-4-one]
45 | Cc1cc(C(=O)N2CCS(=O)(=O)CC2)ccc1CCS(=O)(=O)N1CCC2(CC1)N=C(C1CCCCC1)NC2=O [Compound 841, 2-cyclohexyl-8-{2-[4-(1,1-dioxo-1λ^6-thiomorpholine-4-carbonyl)-2-methyl-phenyl]-ethanesulfonyl}-1,3,8-triaza-spiro[4.5]dec-1-en-4-one]
81 | Cc1cc(NCCN(C)C)ccc1CCS(=O)(=O)N1CCC2(CC1)N=C(C1CCCCC1)NC2=O [Compound 842, 2-cyclohexyl-8-{2-[4-(2-dimethylamino-ethylamino)-2-methyl-phenyl]-ethanesulfonyl}-1,3,8-triaza-spiro[4.5]dec-1-en-4-one]
86 | Cc1cc(S(=O)(=O)NCCN(C)C)ccc1CCS(=O)(=O)N1CCC2(CC1)N=C(C1CCCCC1)NC2=O [Compound 844, 4-[2-(2-cyclohexyl-4-oxo-1,3,8-triaza-spiro[4.5]dec-1-ene-8-sulfonyl)-ethyl]-N-(2-dimethylamino-ethyl)-3-methyl-benzenesulfonamide]

More lines, now with the values behind:

Compound | cAMP production activity (%)
Cc1cc(C(=O)N2CCC(O)(CO)CC2)cc(C)c1CCS(=O)(=O)N1CCC2(CC1)N=C(c1cccc(OC(F)(F)F)c1)NC2=O [Compound 831, 8-{2-[4-(4-hydroxy-4-hydroxymethyl-piperidine-1-carbonyl)-2,6-dimethyl-phenyl]-ethanesulfonyl}-2-(3-trifluoromethoxy-phenyl)-1,3,8-triaza-spiro[4.5]dec-1-en-4-one] | 4.7
CCCCCCCCCC1=NC2(CCN(S(=O)(=O)CCc3c(C)cc(N4C(=O)CNC4=O)cc3C)CC2)C(=O)N1 [Compound 832, 3-{3,5-dimethyl-4-[2-(2-nonyl-4-oxo-1,3,8-triaza-spiro[4.5]dec-1-ene-8-sulfonyl)-ethyl]-phenyl}-imidazolidine-2,4-dione] | 84
Cc1cc(N2C(=O)NC(COC(C)(C)C)C2=O)cc(C)c1CCS(=O)(=O)N1CCC2(CC1)N=C([C@H]1CC[C@H](C)CC1)NC2=O (stereo partly shown) [Compound 833, 5-tert-butoxymethyl-3-(3,5-dimethyl-4-{2-[2-(4-methyl-cyclohexyl)-4-oxo-1,3,8-triaza-spiro[4.5]dec-1-ene-8-sulfonyl]-ethyl}-phenyl)-imidazolidine-2,4-dione] | 34
O=C1NC(c2cccc(C(F)(F)F)c2)=NC12CCN(S(=O)(=O)CCc1cccc3c1ccn3C[C@H](O)CO)CC2 [Compound 840, 8-{2-[1-((S)-2,3-dihydroxy-propyl)-1H-indol-4-yl]-ethanesulfonyl}-2-(3-trifluoromethyl-phenyl)-1,3,8-triaza-spiro[4.5]dec-1-en-4-one] | 98
Cc1cc(C(=O)N2CCN(C)CC2)ccc1CCS(=O)(=O)N1CCC2(CC1)N=C(c1cccc(OC(F)(F)F)c1)NC2=O [Compound 843, 8-{2-[2-methyl-4-(4-methyl-piperazine-1-carbonyl)-phenyl]-ethanesulfonyl}-2-(3-trifluoromethoxy-phenyl)-1,3,8-triaza-spiro[4.5]dec-1-en-4-one] | 77
Cc1cc(NCC(=O)N2CCN(C)CC2)ccc1CCS(=O)(=O)N1CCC2(CC1)N=C(c1cccc(OC(F)(F)F)c1)NC2=O [Compound 845, 8-(2-{2-methyl-4-[2-(4-methyl-piperazin-1-yl)-2-oxo-ethylamino]-phenyl}-ethanesulfonyl)-2-(3-trifluoromethoxy-phenyl)-1,3,8-triaza-spiro[4.5]dec-1-en-4-one] | 68
Cc1cc(S(=O)(=O)Nc2ccncc2)ccc1CCS(=O)(=O)N1CCC2(CC1)N=C(c1cccc(OC(F)(F)F)c1)NC2=O [Compound 846, 3-methyl-4-{2-[4-oxo-2-(3-trifluoromethoxy-phenyl)-1,3,8-triaza-spiro[4.5]dec-1-ene-8-sulfonyl]-ethyl}-N-pyridin-4-yl-benzenesulfonamide] | 47
Cc1cc(NCC(N)=O)ccc1CCS(=O)(=O)N1CCC2(CC1)N=C(c1cccc(OC(F)(F)F)c1)NC2=O [Compound 847, 2-(3-methyl-4-{2-[4-oxo-2-(3-trifluoromethoxy-phenyl)-1,3,8-triaza-spiro[4.5]dec-1-ene-8-sulfonyl]-ethyl}-phenylamino)-acetamide] | 71
Cc1cc(S(=O)(=O)NC2CCN(Cc3ccccc3)CC2)ccc1CCS(=O)(=O)N1CCC2(CC1)N=C(c1cccc(OC(F)(F)F)c1)NC2=O [Compound 848, N-(1-benzyl-piperidin-4-yl)-3-methyl-4-{2-[4-oxo-2-(3-trifluoromethoxy-phenyl)-1,3,8-triaza-spiro[4.5]dec-1-ene-8-sulfonyl]-ethyl}-benzenesulfonamide] | 77
Cc1cc(C(=O)N2CCN(C(C)C)CC2)ccc1CCS(=O)(=O)N1CCC2(CC1)N=C(c1cccc(OC(F)(F)F)c1)NC2=O [Compound 849, 8-{2-[4-(4-isopropyl-piperazine-1-carbonyl)-2-methyl-phenyl]-ethanesulfonyl}-2-(3-trifluoromethoxy-phenyl)-1,3,8-triaza-spiro[4.5]dec-1-en-4-one] | 124
O=C1NC(c2cccc(OC(F)(F)F)c2)=NC12CCN(S(=O)(=O)CCc1ccc3c(ccn3C[C@H](O)CO)c1)CC2 [Compound 850, 8-{2-[1-((S)-2,3-dihydroxy-propyl)-1H-indol-5-yl]-ethanesulfonyl}-2-(3-trifluoromethoxy-phenyl)-1,3,8-triaza-spiro[4.5]dec-1-en-4-one] | 82
Cc1cc(S(=O)(=O)NC[C@@H](O)CO)ccc1CCS(=O)(=O)N1CCC2(CC1)N=C(c1cccc(OC(F)(F)F)c1)NC2=O [Compound 851, N—((R)-2,3-dihydroxy-propyl)-3-methyl-4-{2-[4-oxo-2-(3-trifluoromethoxy-phenyl)-1,3,8-triaza-spiro[4.5]dec-1-ene-8-sulfonyl]-ethyl}-benzenesulfonamide] | 83
